Legend:
[1] = biological target: T1, recombinant Human Phosphodiesterase B2 (PDE4B2) (Homo sapiens, UniProt Q07343); assay: Human Phosphodiesterase B2 Alpha Screen Assay; format: biochemical; conditions: Alpha Screen cAMP kit; 15 min preincubation, 60 min reaction at room temperature; Xlfit model 205; read-out: PDE4B2 pIC50 (converted)
Method: Human Phosphodiesterase B2 Alpha Screen Assay
The assay uses recombinant Human Phosphodiesterase B2 (PDE4B2) produced in house (PrAZL0133), stored at −20° C. The substrate uses cAMP, part of the Alpha Screen cAMP kit (Perkin Elmer, Cat# 6760625M), stored at 4° C. The Alpha Screen kit also includes biotinylated cAMP, acceptor and donor beads.
The assay additions were as follows: Test compounds and controls were added to white 384-well flat-bottom plates (Greiner, Cat#781075), 0.2 μl in 100% DMSO, followed by 10 μl PDE4B2 in reaction buffer. The reaction buffer constitution was: 50 mM Tris (pH 7.5), 8.3 mM MgCl2, 1.7 mM EGTA and 0.01% (w/v) Brij®35. The enzyme and the compounds were incubated at room temperature for 15 minutes. Then 10 μl cAMP in reaction buffer was added. The assay was stopped after 60 minutes incubation at room temperature by adding 10 μl acceptor beads in detection buffer with 40 mM EDTA. The detection buffer constitution was: 5 mM Tris (pH 7.5), 0.1% (w/v) BSA and 0.1% (v/v) Tween 20. This addition followed by an addition of 10 μl donor beads in detection buffer, with biotinylated cAMP. The plates were then incubated, dark at room temperature, for 5 hours followed by measurement on a Fusion™-α analyser. pIC50 values (presented in Table 14) were determined using Xlfit curve fitting using model 205.

[2] = biological target: T1, recombinant Human Phosphodiesterase B2 (PDE4B2); assay: Human Phosphodiesterase B2 Radiometric Assay (yttrium silicate SPA beads, [3H]cyclic AMP); format: biochemical; conditions: recombinant human PDE4B2, radiometric SPA assay, 8 nM [3H]cyclic AMP; read-out: PDE4B2 pIC50 (converted)
How it was run: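 Compounds were preincubated 30 min at 30 °C with 0.1 mg/mL PDE4B2 in 50 mM HEPES pH 7.5, 8.3 mM MgCl2, 1.7 mM EGTA, 0.01% Brij 35. Then 8 nM [3H]cAMP was added for 20 min, stopped with yttrium silicate SPA beads plus 18 mM ZnSO4 capturing product 5′AMP; pIC50 by curve fitting.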

T1 sequence (Q07343 1-564 isoform Q07343-2): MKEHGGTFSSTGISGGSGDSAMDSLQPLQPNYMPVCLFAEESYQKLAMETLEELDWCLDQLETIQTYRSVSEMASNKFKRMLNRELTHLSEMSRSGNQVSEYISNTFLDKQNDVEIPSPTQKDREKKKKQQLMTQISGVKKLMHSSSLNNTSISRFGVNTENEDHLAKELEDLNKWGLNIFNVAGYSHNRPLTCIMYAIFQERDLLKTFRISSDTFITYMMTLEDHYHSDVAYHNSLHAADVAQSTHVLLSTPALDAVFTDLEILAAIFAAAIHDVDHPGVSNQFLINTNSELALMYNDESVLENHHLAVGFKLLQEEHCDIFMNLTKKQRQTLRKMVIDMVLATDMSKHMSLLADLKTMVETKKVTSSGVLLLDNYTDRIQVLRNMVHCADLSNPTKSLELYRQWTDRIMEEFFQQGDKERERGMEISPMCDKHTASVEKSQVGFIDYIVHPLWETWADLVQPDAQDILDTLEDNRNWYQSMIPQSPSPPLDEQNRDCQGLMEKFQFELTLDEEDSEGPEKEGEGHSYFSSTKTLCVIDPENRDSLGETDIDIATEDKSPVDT

IC50 [1] [nM]	IC50 [2] [nM]	SMILES
	0.0126	O=C1CCN(Cc2cc(O)ccc2-c2cccc(-n3c(=O)n([C@H]4CC[C@@H](NCc5cn6cc(F)ccc6n5)CC4)c(=O)c4cc(F)cnc43)c2)CCN1 [Example 375, 6-fluoro-3-(cis-4-{[(6-fluoroimidazo[1,2-a]pyridin-2-yl)methyl]amino}cyclohexyl)-1-{4′-hydroxy-2′-[(5-oxo-1,4-diazepan-1-yl)methyl]biphenyl-3-yl}pyrido[2,3-d]pyrimidine-2,4(1H,3H)-dione]
	0.0398	O=CN1CCCN(Cc2cc(O)ccc2-c2cccc(-n3c(=O)n([C@H]4CC[C@@H](NCc5cn6cc(F)ccc6n5)CC4)c(=O)c4cc(F)cnc43)c2)CC1 [Example 376, 4-({3′-[6-fluoro-3-(cis-4-{[(6-fluoroimidazo[1,2-a]pyridin-2-yl)methyl]amino}cyclohexyl)-2,4-dioxo-3,4-dihydropyrido[2,3-d]pyrimidin-1(2H)-yl]-4-hydroxybiphenyl-2-yl}methyl)-1,4-diazepane-1-carbaldehyde]
	0.0631	O=C1CN(Cc2cc(O)ccc2-c2cccc(-n3c(=O)n([C@H]4CC[C@@H](NCc5cn6cc(F)ccc6n5)CC4)c(=O)c4cc(F)cnc43)c2)CCN1 [Example 377, 6-fluoro-3-(cis-4-{[(6-fluoroimidazo[1,2-a]pyridin-2-yl)methyl]amino}cyclohexyl)-1-{4′-hydroxy-2′-[(3-oxopiperazin-1-yl)methyl]biphenyl-3-yl}pyrido[2,3-d]pyrimidine-2,4(1H,3H)-dione]
	0.316	CN(CC(=O)N(C)C)Cc1cc(O)ccc1-c1cccc(-n2c(=O)n([C@H]3CC[C@@H](NCc4cn5cc(F)ccc5n4)CC3)c(=O)c3cc(F)cnc32)c1 [Example 378, N~2~-({3′-[6-fluoro-3-(cis-4-{[(6-fluoroimidazo[1,2-a]pyridin-2-yl)methyl]amino}cyclohexyl)-2,4-dioxo-3,4-dihydropyrido[2,3-d]pyrimidin-1(2H)-yl]-4-hydroxybiphenyl-2-yl}methyl)-N,N,N~2~-trimethylglycinamide]

The remaining lines, values behind:

SMILES	IC50 [1] [nM]	IC50 [2] [nM]
O=C(N[C@H]1CC[C@@H](n2c(=O)c3cc(F)cnc3n(C3CCCC3)c2=O)CC1)c1cn2ccccc2n1 [Example 7, N-[cis-4-(1-cyclopentyl-6-fluoro-2,4-dioxo-1,4-dihydropyrido[2,3-d]pyrimidin-3(2H)-yl)cyclohexyl]imidazo[1,2-a]pyridine-2-carboxamide]	0.631	
O=C(N[C@H]1CC[C@@H](n2c(=O)c3cc(F)cnc3n(Cc3ccc(F)cc3)c2=O)CC1)c1cn2ccccc2n1 [Example 9, N-{cis-4-[6-fluoro-1-(4-fluorobenzyl)-2,4-dioxo-1,4-dihydropyrido[2,3-d]pyrimidin-3(2H)-yl]cyclohexyl}imidazo[1,2-a]pyridine-2-carboxamide]	3.16	
O=c1c2cc(F)cnc2n(-c2cccc(-c3ccc(O)cc3CN3CCOCC3)c2)c(=O)n1[C@H]1CC[C@@H](NCc2cccn3ccnc23)CC1 [Example 373, 6-fluoro-1-[4′-hydroxy-2′-(morpholin-4-ylmethyl)biphenyl-3-yl]-3-{cis-4-[(imidazo[1,2-a]pyridin-8-ylmethyl)amino]cyclohexyl} pyrido[2,3-d]pyrimidine-2,4(1H,3H)-dione]		0.158
O=c1c2cc(F)cnc2n(-c2cccc(-c3ccc(O)cc3CN3CCOCC3)c2)c(=O)n1[C@H]1CC[C@@H](NCc2ncc3ccccn23)CC1 [Example 374, 6-fluoro-1-[4′-hydroxy-2′-(morpholin-4-ylmethyl)biphenyl-3-yl]-3-{cis-4-[(imidazo[1,5-a]pyridin-3-ylmethyl)amino]cyclohexyl}pyrido[2,3-d] pyrimidine-2,4(1H,3H)-dione]		0.0631

Source: patent US20100204203A1, “Chemical Compounds 637: Pyridopyrimidinediones as PDE4 Inhibitors” (priority 2007, published 2010)
